The values that follow come from article PMC5617480 (Oncotarget, 2017).

One series relates to A549 cells. Set-up: method as in earlier work. The settings on record: A549, 48 h; ref [1]; cited from earlier work.
The next series relates to Pu22. Set-up: method as in earlier work. The settings on record: ref [1], cited from earlier work; for ctDNADC50/Pu22DC50: FID selectivity ratio; for Pu22DC50: FID.
The next series deals with c-kit-2. Further details: method as in earlier work. As to conditions: ref [1], cited from earlier work; for ctDNADC50/c-kit-2DC50: FID selectivity ratio; for c-kit-2DC50: FID.
In another series the test system is ds26. Set-up: method as in earlier work. The settings on record: ref [1], cited from earlier work; for ctDNADC50/ds26DC50: FID selectivity ratio; for ds26DC50: FID.
The test system of the next series is ctDNA. Set-up: method as in earlier work. The settings on record: ref [1], cited from earlier work; for ctDNADC50/ctDNADC50: FID selectivity ratio; for ctDNADC50: FID.
Series [1] in a line: Solubility in water by UV-vis spectroscopy. Type of series: physicochemical. As to conditions: H2O. How it is done: We next determined the solubility and stability of complexes 4, 5, and 6 in H2O and TBS buffer by UV-vis spectroscopy. […] TBS buffer (1% DMSO, 100 mM KCl, and 10 mM pH 7.35 Tris-HCl) was used to mimic normal physiological conditions.
A further series deals with T1, telomerase (Homo sapiens, UniProt O14746).
T1 construct: Each telomerase extract was prepared from BEL-; endogenous in cells; host or cells: BEL-7404 cell extract
Briefly: TRAP assay (TRAP-silver staining assay). The series is classed as biochemical. The settings on record: BEL-7404 cells, 10 μM, 24 h. From the text:
As mentioned above, G4s structures widely exist in telomeres, we therefore monitored the effect of chiral platinum(II) complexes on function and activity of telomerase. To address this, we first determined the effect of complexes 4–6 on the expression of some telomeric DNA-associated proteins. […] We next evaluated the activity of telomerase by TRAP assay.
Apoptosis analysis c-myc antibody, or anti-β-actin primary antibody and the Apoptosis was detected by flow cytometric analysis corresponding secondary antibody were used to detect of annexin V staining. Annexin V-FITC vs PI assay was target protein via standard washing and incubating steps. performed as previously described. Briefly, adherent Senescence induction and selective binding to NEL-7404 cells were harvested and suspended in the G4s by 4–6 in BEL-7404 cells annexin-binding buffer (5×10^5 cells/mL). Then, cells were incubated with annexin V-FITC and PI for 1.0 h at Staining for SA-β-Gal activity was carried out room temperature in the dark and immediately analyzed according to Moore and Chen reports. In brief, by flow cytometry. The data are presented as biparametric After the long-term incubation with complexes 4–6, the dot plots showing PI red fluorescence vs annexin V-FITC growth medium was aspirated and the BEL-7404 cells green fluorescence. were fixed in 2% formaldehyde/0.2% glutaraldehyde for 15.0 min at room temperature. […] Finally, the extraction, RT-PCR, and the selective binding to G4s by BEL-7404 cell cycle was determined with FACS Calibur complexes 4–6 was according to the our previous reported flow cytometer (BD) and analyzed using Cell Quest.
(BDIS) and ModFit LT (Verity Software House, Topsham, ME). Gene expression by a panel of genes for RT-Determination of caspase-3/9 activity by flow qPCR array cytometric analysis Differential expression of telomeres/telomerase-related genes was analyzed using the Telomeres & […]

The next series deals with Pu27 G4. Briefly: Fluorescence titration (Stern-Volmer quenching). Type of series: binding. The settings on record: Pu27 G4-DNA, compound 20 μM, 100 mM K+. Here is the method: We asked whether chiral platinum(II) complexes 4–6 have the ability to bind to G-quadruplex DNA. To address this, FRET assays, CD spectroscopy, G4-FID assays, and fluorescence titration analysis were performed. […] For G4-HTG21, the ^G4DC50 values of complexes 4–6 were 1.23, 1.26 and 0.99 μM, respectively; while, for G4-Pu27, the ^G4DC50 values were 1.01, 0.89, and 0.82 μM, respectively. In addition, the ^ctDNADC50/^G4DC50 ratio of the HTG21 and Pu27 G4s treated with complexes 4–6 was in the range of 50.54-90.65 and 71.56-110.67 folds, respectively. To further evaluate the binding ability of complexes 4–6 to Pu27 and HTG21G4s, CD spectroscopy and fluorescence titration analysis were performed. […] The quenching ability of complexes 4–6 to HTG21 and Pu27 G4 DNA fluorescence can be quantitatively estimated by their respective quenching constant (Kq), which was derived from the Stern-Volmer quenching equation. […] Finally, the selective binding of complexes 4–6 towards G4 DNA was analyzed by FRET-melting assays. […] In contrast, the ΔTm value for the F32T+H20M duplex DNA in the presence of complexes 4–6 was 1.18, 1.34, and 0.78 °C under the same conditions (Figure 4A). Altogether, our data indicated complexes 4–6, especially complex 6, is the best binder to G4 DNA, which caused DNA complex displaying the highest thermodynamic stability.
Supplementary Figure 26: Fluorescence emission spectra of compounds (20 μM) in 100 mM K+ solution in the absence and
presence of G-quadruplex Pu27 with 4 (A), 5 (B) and 6 (C), respectively. […]

T1 sequence (O14746 whole entry): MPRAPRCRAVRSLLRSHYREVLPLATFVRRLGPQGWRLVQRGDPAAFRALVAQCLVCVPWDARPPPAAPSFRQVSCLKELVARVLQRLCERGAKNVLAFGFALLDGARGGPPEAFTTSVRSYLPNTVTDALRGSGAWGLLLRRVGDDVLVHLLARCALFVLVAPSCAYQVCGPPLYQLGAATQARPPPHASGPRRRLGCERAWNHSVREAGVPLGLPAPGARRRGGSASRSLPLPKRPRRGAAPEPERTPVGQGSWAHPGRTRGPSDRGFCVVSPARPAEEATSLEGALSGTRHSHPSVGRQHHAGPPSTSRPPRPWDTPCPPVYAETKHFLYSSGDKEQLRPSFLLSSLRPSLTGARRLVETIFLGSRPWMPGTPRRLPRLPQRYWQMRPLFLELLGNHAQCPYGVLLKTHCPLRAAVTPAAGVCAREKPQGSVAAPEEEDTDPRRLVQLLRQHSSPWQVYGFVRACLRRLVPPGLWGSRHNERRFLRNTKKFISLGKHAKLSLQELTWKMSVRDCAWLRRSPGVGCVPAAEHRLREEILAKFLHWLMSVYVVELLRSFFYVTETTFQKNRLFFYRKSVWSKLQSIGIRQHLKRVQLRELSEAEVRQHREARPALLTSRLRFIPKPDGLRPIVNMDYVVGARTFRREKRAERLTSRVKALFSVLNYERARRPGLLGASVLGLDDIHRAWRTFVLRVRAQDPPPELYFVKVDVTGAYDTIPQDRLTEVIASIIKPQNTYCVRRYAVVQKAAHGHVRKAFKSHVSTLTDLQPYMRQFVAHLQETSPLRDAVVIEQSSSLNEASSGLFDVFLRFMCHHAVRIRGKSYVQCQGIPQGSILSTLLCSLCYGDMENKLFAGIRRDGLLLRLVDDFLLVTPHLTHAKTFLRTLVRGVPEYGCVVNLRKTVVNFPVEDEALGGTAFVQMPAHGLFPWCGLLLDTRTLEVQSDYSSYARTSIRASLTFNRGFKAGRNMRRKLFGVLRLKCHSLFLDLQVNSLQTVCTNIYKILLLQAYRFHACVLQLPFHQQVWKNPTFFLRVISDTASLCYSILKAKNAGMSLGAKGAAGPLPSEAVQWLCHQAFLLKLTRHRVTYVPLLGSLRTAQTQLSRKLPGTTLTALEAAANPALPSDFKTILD
T1 sequence (O60832 whole entry partner): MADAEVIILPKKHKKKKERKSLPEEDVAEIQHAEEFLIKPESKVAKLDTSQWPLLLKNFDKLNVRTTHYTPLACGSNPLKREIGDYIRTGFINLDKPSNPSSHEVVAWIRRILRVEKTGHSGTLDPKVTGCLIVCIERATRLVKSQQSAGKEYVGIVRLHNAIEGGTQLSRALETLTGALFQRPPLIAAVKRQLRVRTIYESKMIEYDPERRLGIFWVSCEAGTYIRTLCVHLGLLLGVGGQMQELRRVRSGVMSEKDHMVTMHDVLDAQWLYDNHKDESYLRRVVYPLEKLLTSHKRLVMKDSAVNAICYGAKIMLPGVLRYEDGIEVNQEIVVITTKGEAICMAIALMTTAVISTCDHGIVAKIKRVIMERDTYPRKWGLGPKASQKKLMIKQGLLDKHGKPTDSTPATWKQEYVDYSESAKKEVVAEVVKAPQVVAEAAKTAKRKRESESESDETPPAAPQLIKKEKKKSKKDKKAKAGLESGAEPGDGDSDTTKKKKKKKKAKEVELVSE
T1 sequence (Q9NPE3 whole entry partner): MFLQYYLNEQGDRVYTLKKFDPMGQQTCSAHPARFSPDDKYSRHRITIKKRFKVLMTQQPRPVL
T1 sequence (Q9NX24 whole entry partner): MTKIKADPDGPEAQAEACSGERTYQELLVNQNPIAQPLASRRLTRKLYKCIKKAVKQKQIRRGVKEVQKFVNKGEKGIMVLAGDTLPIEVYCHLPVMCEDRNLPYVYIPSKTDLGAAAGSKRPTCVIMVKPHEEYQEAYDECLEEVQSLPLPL
T1 sequence (Q9NY12 whole entry partner): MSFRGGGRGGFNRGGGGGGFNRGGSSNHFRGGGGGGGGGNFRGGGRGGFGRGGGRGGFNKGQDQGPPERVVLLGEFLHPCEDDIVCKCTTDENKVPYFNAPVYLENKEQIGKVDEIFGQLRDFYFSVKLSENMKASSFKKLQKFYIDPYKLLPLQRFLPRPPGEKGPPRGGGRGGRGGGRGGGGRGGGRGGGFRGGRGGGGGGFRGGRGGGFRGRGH
T1 sequence (Q9BUR4 whole entry partner): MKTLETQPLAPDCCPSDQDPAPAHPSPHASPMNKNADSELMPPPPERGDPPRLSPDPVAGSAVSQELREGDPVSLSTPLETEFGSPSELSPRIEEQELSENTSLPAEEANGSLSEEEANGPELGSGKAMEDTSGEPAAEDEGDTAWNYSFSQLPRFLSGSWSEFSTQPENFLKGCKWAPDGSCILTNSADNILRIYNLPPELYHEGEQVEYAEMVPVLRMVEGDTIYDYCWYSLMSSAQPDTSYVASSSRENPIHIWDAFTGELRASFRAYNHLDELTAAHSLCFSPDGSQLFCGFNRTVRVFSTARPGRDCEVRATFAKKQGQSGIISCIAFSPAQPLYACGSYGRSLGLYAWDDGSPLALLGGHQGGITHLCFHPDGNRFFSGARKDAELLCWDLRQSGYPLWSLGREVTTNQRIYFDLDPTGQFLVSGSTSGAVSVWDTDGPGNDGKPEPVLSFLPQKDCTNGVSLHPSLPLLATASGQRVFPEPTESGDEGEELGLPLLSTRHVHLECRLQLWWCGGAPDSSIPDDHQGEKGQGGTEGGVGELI

Consider `O=C(NCC(O)CO)c1cnc2c3c(cccc13)-c1ccccc1C2=O.[Cl-].[Cl-].[Pt+2]` (racemic) [ligand 1, R/S-(±)-FOA], for which the IC50 in the series on A549 cells is 20.2 ± 0.5 µM. Besides, in the series with Pu22, the ctDNADC50/Pu22DC50 is 1.88 and the Pu22DC50 was 33.97 µM. In addition, in the series on c-kit-2, the ctDNADC50/c-kit-2DC50 is given as less than 0.64 and the c-kit-2DC50 is greater than 100 µM. In the series with ds26, the ctDNADC50/ds26DC50 was 5.31 and the ds26DC50 is 12.05 µM. Further, in the series with ctDNA, the ctDNADC50/ctDNADC50 is recorded as 1.00 and the ctDNADC50 was 63.96 µM.
For `O=C(NC[C@@H](O)CO)c1cnc2c3c(cccc13)-c1ccccc1C2=O.[Cl-].[Cl-].[Pt+2]` [ligand 2, R-(+)-FOA], the IC50 with A549 cells was 24.1 ± 0.4 µM. In addition, in the series on Pu22, the ctDNADC50/Pu22DC50 is reported as 0.69 and the Pu22DC50 is 57.62 µM. Besides, in the series with c-kit-2, the ctDNADC50/c-kit-2DC50 is less than 0.40 and the c-kit-2DC50 is greater than 100 µM. In addition, in the series with ds26, the ctDNADC50/ds26DC50 is 2.77 and the ds26DC50 was 14.41 µM. In the series on ctDNA, the ctDNADC50/ctDNADC50 was 1.00 and the ctDNADC50 was 39.98 µM.
As for `O=C(NC[C@H](O)CO)c1cnc2c3c(cccc13)-c1ccccc1C2=O.[Cl-].[Cl-].[Pt+2]` [ligand 3, S-(–)-FOA], in the series with A549 cells, the IC50 was 20.4 ± 0.3 µM. In addition, in the series with Pu22, the ctDNADC50/Pu22DC50 was 3.49 and the Pu22DC50 was 25.75 µM. In the series with c-kit-2, the ctDNADC50/c-kit-2DC50 is 3.92 and the c-kit-2DC50 was 22.94 µM. In the series with ds26, the ctDNADC50/ds26DC50 is 11.40 and the ds26DC50 is 7.88 µM. In the series on ctDNA, the ctDNADC50/ctDNADC50 is on record as 1.00 and the ctDNADC50 is 89.82 µM.
Consider cis-[PtCl2(R-(+)-FOA)] [complex 5], for which the solubility in water in series [1] was 1000 µg/mL. Besides, the “inhibitory ratio of telomerase activity” value on telomerase was 23.35%. Besides, in the series with Pu27 G4, the “Extent of quenching (%)” value amounted to 30.06% and the “Kq (quenching constant, Stern-Volmer)” value was 8.80×10^4 L·mol–1.
For cis-[PtCl2(R/S-(±)-FOA)] [complex 4] the same measures were 680 µg/mL, 63.03%, 32.54% and 1.02×10^5 L·mol–1.
For cis-[PtCl2(S-(–)-FOA)] [complex 6] the same measures were 2000 µg/mL, 67.82%, 40.31% and 1.38×10^5 L·mol–1.
